# Like-named read-outs stand apart in the source and are kept apart here.
# Key:
# [1] = tested on: patients with atrial fibrillation at risk of stroke
# Text: Median follow-up was 2.0 years and the primary outcome was stroke or systemic embolism.
# Patients were recruited from 951 clinical centers in 44 countries. In brief, patients were eligible if they had atrial fibrillation documented on electrocardiogram at screening or within 6 months; and at least one of the following: prior stroke or transient ischemic attack; left ventricular ejection fraction less than 40%; New York Heart Association heart failure symptoms of Class 2 or greater within 6 months; age at least 75 years; or age at least 65 years with diabetes mellitus, hypertension or coronary artery disease.
# The time in therapeutic range was calculated by the method of Rosendaal (Rosendaal F R, et al., A method to determine the optimal intensity of oral anticoagulant therapy, Thromb Haemost, 1993, 69:236-239), excluding INRs from the first week and after discontinuations. […] Concomitant use of aspirin (less than 100 mg/day) or other antiplatelet agents was allowed.
# Liver function testing was performed monthly during the first year of follow-up.
# The primary study outcome was stroke or systemic embolism. The primary safety outcome was major hemorrhage. Secondary outcomes were stroke, systemic embolism and death. Other outcomes were myocardial infarction, pulmonary embolism, transient ischemic attacks, and hospitalizations. The primary net benefit-risk outcome was the composite of stroke, systemic embolism, pulmonary embolism, myocardial infarction, death or major hemorrhage. Stroke was defined as sudden onset of focal neurological deficit consistent with the territory of a major cerebral artery and categorized as ischemic, hemorrhagic or unspecified. Hemorrhagic transformation of ischemic stroke was not considered as hemorrhagic stroke. Intracranial hemorrhage included hemorrhagic stroke and sub-dural or sub-arachnoid hemorrhage. Systemic embolism was an acute vascular occlusion of an extremity or organ documented by imaging, surgery or autopsy. Major bleeding was defined as a reduction in hemoglobin level of at least […] or transfusion of at least 2 units of blood or symptomatic bleeding in a critical area or organ. Life-threatening bleeding was a subset of major bleeding that included fatal bleeding, symptomatic intracranial bleeding, bleeding with hemoglobin decrease of more than […] or requiring transfusion of more than 4 units of blood or requiring inotropic agents or necessitating surgery. All other bleeding was considered minor.
# All primary and secondary outcome events were blindly and doubly adjudicated. An international team of adjudicators reviewed documents in local languages after blinding; or documents were translated by a independent group and blinded centrally. All transient ischemic attacks were reviewed to ensure that strokes had not been missed. To detect possible unreported events, symptom questionnaires were regularly administered to patients, and adverse events and hospitalization reports were scrutinized for unreported primary or secondary outcomes.
# If maximum of the two p-values was greater than 0.025, the minimum of the two p-values must be less than 0.0125, one-sided, to claim statistical significance. All analyses were based on intention-to-treat.
# AF patients [2] = settings: SPORTIF III (2003), cited from earlier work
# AF patients [3] = settings: SPORTIF V (2005), cited from earlier work
# AF patients [4] = settings: ACTIVE W (2006), warfarin arm; cited from earlier work
# [5] = tested on: patients who have nonvalvular atrial fibrillation; settings: VKAs, such as warfarin; cited from earlier work
# [6] = ximelagatran 36 mg b.i.d. vs. warfarin
compound,measurement,setting,value
"CC(=O)CC(c1ccccc1)c1c(O)c2ccccc2oc1=O (racemic) [Warfarin, 3-(α-acetonylbenzyl)4-hydroxycoumarin, reference compound]",ALT or AST > 3xULN,[1]; Warfarin arm,(2.1) %
same,ALT or AST > 3xULN with concurrent bilirubin > 2xULN,[1]; Warfarin arm,(0.4) %
same,Adverse Event: Arthralgia,[1]; Warfarin arm,(5.5) %
same,Adverse Event: Atrial fibrillation,[1]; Warfarin arm,(5.4) %
same,Adverse Event: Back pain,[1]; Warfarin arm,(5.5) %
same,Adverse Event: Chest pain,[1]; Warfarin arm,(5.7) %
same,Adverse Event: Cough,[1]; Warfarin arm,(5.8) %
same,Adverse Event: Diarrhea,[1]; Warfarin arm,(5.5) %
same,Adverse Event: Dizziness,[1]; Warfarin arm,(9.3) %
same,Adverse Event: Dyspepsia,[1]; Warfarin arm,(1.4) %
same,Adverse Event: Dyspnoea,[1]; Warfarin arm,(9.2) %
same,Adverse Event: Fatigue,[1]; Warfarin arm,(5.9) %
same,Adverse Event: Nasopharyngitis,[1]; Warfarin arm,(5.5) %
same,Adverse Event: Peripheral edema,[1]; Warfarin arm,(7.6) %
same,Adverse Event: Upper respiratory tract infection,[1]; Warfarin arm,(5.0) %
same,Adverse Event: Urinary tract infection,[1]; Warfarin arm,(5.3) %
same,"All Death, Rate",[1]; Warfarin arm,4.13 /100 Person Years
same,"Any Major Bleeding, Rate",[1]; Warfarin arm,3.46 /100 Person Years
same,"Extracranial Bleeding, Rate",[1]; Warfarin arm,2.73 /100 Person Years
same,"First Hospitalization, Rate",[1]; Warfarin arm,27.5 /100 Person Years
same,"Intracranial Bleeding, Rate",[1]; Warfarin arm,0.72 /100 Person Years
same,"Life threatening bleeding, Rate",[1]; Warfarin arm,1.80 /100 Person Years
same,"Major gastro-intestinal Bleeding, Rate",[1]; Warfarin arm,1.03 /100 Person Years
same,"Major or Minor Bleeding, Rate",[1]; Warfarin arm,23.92 /100 Person Years
same,"Minor Bleeding, Rate",[1]; Warfarin arm,21.03 /100 Person Years
same,"Myocardial Infarction, Rate",[1]; Warfarin arm,0.54 /100 Person Years
same,"Non-disabling Stroke Modified Rankin 0-2, Rate",[1]; Warfarin arm,0.58 /100 Person Years
same,"Other Major bleeding, Rate",[1]; Warfarin arm,1.80 /100 Person Years
same,"Pulmonary embolism, Rate",[1]; Warfarin arm,0.09 /100 Person Years
same,Reason for discontinuation: Gastrointestinal bleeding,[1]; Warfarin arm,(0.9) %
same,Reason for discontinuation: Gastrointestinal disorders,[1]; Warfarin arm,(0.8) %
same,Reason for discontinuation: Outcome event,[1]; Warfarin arm,(2.2) %
same,Reason for discontinuation: Patient decision,[1]; Warfarin arm,(6.2) %
same,Reason for discontinuation: SAE,[1]; Warfarin arm,(1.6) %
same,"Stroke or systemic embolism, Rate",[1]; Warfarin arm,1.70 /100 Person Years
same,"Stroke, Hemorrhagic, Rate",[1]; Warfarin arm,0.38 /100 Person Years
same,"Stroke, Rate",[1]; Warfarin arm,1.58 /100 Person Years
same,Study Drug Discontinuation At one year,[1]; Warfarin arm,(10) %
same,Study Drug Discontinuation At two years,[1]; Warfarin arm,(19) %
same,"Vascular Death, Rate",[1]; Warfarin arm,2.69 /100 Person Years
same,hepatobiliary disorders (AE),[1]; Warfarin arm,(2.2) %
same,hepatobiliary disorders (SAE),[1]; Warfarin arm,(0.4) %
same,Study Drug Discontinuation At one year,"[1]; Warfarin arm, listed as warfarin",10%
same,"Stroke, systemic embolism, pulmonary embolism, myocardial infarction death or major bleed, Rate","[1]; net benefit, Warfarin arm",7.99 /100 Person Years
same,"Mortality rate, death from any cause",[1]; warfarin,4.13 % per year
same,Rate of discontinuation at 2.5 years,[1]; warfarin,19%
same,Rate of hemorrhagic stroke,[1]; warfarin,0.38 % per year
same,Rate of major hemorrhage / major bleeding,[1]; warfarin,3.46 % per year
same,Rate of myocardial infarction,[1]; warfarin,0.54 % per year
same,"Rate of net benefit-risk outcome (major vascular events, major bleeding and death)",[1]; warfarin,7.99 % per year
same,"Rate of the primary outcome, stroke or systemic embolism",[1]; warfarin,1.70 % per year
same,Stroke and systemic embolism (per 100 patient years),AF patients [2]; [6],2.3%
same,Myocardial Infarction,AF patients [2]; ximelagatran vs. warfarin,0.6%
same,Stroke and systemic embolism (per 100 patient years),AF patients [3]; [6],1.2%
same,Myocardial Infarction,AF patients [3]; ximelagatran vs. warfarin,1.4%
same,Myocardial Infarction,AF patients [4],0.6%
same,Stroke and systemic embolism (per 100 patient years),AF patients [4],1.5%
same,Reduction of the risk of stroke compared to control,[5],64%

# From patent US20110251160A1 (priority 2008, published 2011)
